Data taken from PubChem BioAssay (NCI).
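The compound was tested at five concentrations on cells cultured in 96-well plates, with a 48-hour exposure period. TGI denotes the concentration required for complete inhibition of growth.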

Key:
Assay in all cases: growth of human tumour cells (NCI), 48 h
[1] = system: 786-0 renal
[2] = system: A498 renal
[3] = system: A549 NSCLC
[4] = system: ACHN renal
[5] = system: CAKI-1 renal
[6] = system: CCRF-CEM leukemia
[7] = system: COLO 205 colon
[8] = system: DU-145 prostate
[9] = system: HCT-116 colon
[10] = system: HCT-15 colon
[11] = system: HL-60(TB) leukemia
[12] = system: HOP-62 NSCLC
[13] = system: HOP-92 NSCLC
[14] = system: HS 578T breast
[15] = system: HT29 colon
[16] = system: IGROV1 ovarian
[17] = system: K-562 leukemia
[18] = system: KM12 colon
[19] = system: LOX IMVI melanoma
[20] = system: M14 melanoma
[21] = system: MCF7 breast
[22] = system: MDA-MB-231 breast
[23] = system: MDA-MB-435
[24] = system: MDA-N
[25] = system: MOLT-4 leukemia
[26] = system: NCI-H226 lung
[27] = system: NCI-H23 lung
[28] = system: NCI-H460 lung
[29] = system: NCI-H522 lung
[30] = system: NCI/ADR-RES ovarian
[31] = system: OVCAR-3 ovarian
[32] = system: OVCAR-5 ovarian
[33] = system: OVCAR-8 ovarian
[34] = system: PC-3 prostate
[35] = system: RPMI-8226 leukemia
[36] = system: SF-268 CNS
[37] = system: SF-295 CNS
[38] = system: SF-539 CNS
[39] = system: SK-MEL-2 melanoma
[40] = system: SK-MEL-5 melanoma
[41] = system: SK-OV-3 ovarian
[42] = system: SN12C renal
[43] = system: SNB-19 CNS
[44] = system: SR leukemia
[45] = system: SW-620 colon
[46] = system: T-47D breast
[47] = system: U251 CNS
[48] = system: UACC-257 melanoma
[49] = system: UACC-62 melanoma
[50] = system: UO-31 renal
[51] = system: BT-549 breast
[52] = system: EKVX NSCLC
[53] = system: HCC-2998 colon
[54] = system: MALME-3M melanoma
[55] = system: RXF 393 renal
[56] = system: SK-MEL-28 melanoma
[57] = system: SNB-75 CNS
[58] = system: TK-10 renal

C=C[C@H]1CC[C@H]2[C@@H]3CC=C4C[C@@H](OC5OCC(O)C(O)C5O)CC[C@]4(C)[C@H]3CC[C@]12C (stereo partly specified)
TGI [1]: 34.1 µM | TGI [2]: 21 µM | TGI [3]: 27.5 µM | TGI [4]: 10.8 µM | TGI [5]: 23.8 µM | TGI [6]: > 100 µM | TGI [7]: > 100 µM | TGI [8]: > 100 µM | TGI [9]: 28.4 µM | TGI [10]: > 100 µM | TGI [11]: > 100 µM | TGI [12]: > 100 µM | TGI [13]: 16.8 µM | TGI [14]: 48.3 µM | TGI [15]: 61.3 µM | TGI [16]: 45.2 µM | TGI [17]: > 100 µM | TGI [18]: 31.8 µM | TGI [19]: 26.7 µM | TGI [20]: 40.9 µM | TGI [21]: > 100 µM | TGI [22]: 39.6 µM | TGI [23]: 47.8 µM | TGI [24]: 65.8 µM | TGI [25]: > 100 µM | TGI [26]: 34.6 µM | TGI [27]: 66.3 µM | TGI [28]: 28.4 µM | TGI [29]: 25.9 µM | TGI [30]: 38.1 µM | TGI [31]: 25.5 µM | TGI [32]: 28.1 µM | TGI [33]: 33.5 µM | TGI [34]: 37.7 µM | TGI [35]: > 100 µM | TGI [36]: 36.2 µM | TGI [37]: 29.7 µM | TGI [38]: 28.6 µM | TGI [39]: 34.5 µM | TGI [40]: > 100 µM | TGI [41]: 28.5 µM | TGI [42]: 33.2 µM | TGI [43]: 65.9 µM | TGI [44]: 33.7 µM | TGI [45]: 40.2 µM | TGI [46]: 55.3 µM | TGI [47]: 30.5 µM | TGI [48]: > 100 µM | TGI [49]: 54.3 µM | TGI [50]: 30 µM

O=C1c2cc3c(cc2CC12Cc1cc4c(cc1C2=O)CCC4)CCC3
TGI [1]: > 100 µM | TGI [2]: > 100 µM | TGI [3]: > 100 µM | TGI [4]: > 100 µM | TGI [51]: > 100 µM | TGI [5]: > 100 µM | TGI [6]: > 100 µM | TGI [7]: > 100 µM | TGI [8]: > 100 µM | TGI [52]: > 100 µM | TGI [53]: > 100 µM | TGI [9]: > 100 µM | TGI [10]: > 100 µM | TGI [11]: > 100 µM | TGI [12]: > 100 µM | TGI [14]: > 100 µM | TGI [15]: > 100 µM | TGI [16]: > 100 µM | TGI [17]: > 100 µM | TGI [18]: > 100 µM | TGI [19]: > 100 µM | TGI [20]: > 100 µM | TGI [54]: > 100 µM | TGI [21]: > 100 µM | TGI [22]: > 100 µM | TGI [23]: > 100 µM | TGI [25]: > 100 µM | TGI [26]: > 100 µM | TGI [27]: > 100 µM | TGI [28]: > 100 µM | TGI [29]: > 100 µM | TGI [30]: > 100 µM | TGI [31]: > 100 µM | TGI [32]: > 100 µM | TGI [33]: > 100 µM | TGI [34]: > 100 µM | TGI [35]: > 100 µM | TGI [55]: > 100 µM | TGI [36]: > 100 µM | TGI [37]: > 100 µM | TGI [38]: > 100 µM | TGI [39]: > 100 µM | TGI [56]: > 100 µM | TGI [40]: > 100 µM | TGI [41]: > 100 µM | TGI [42]: > 100 µM | TGI [43]: > 100 µM | TGI [57]: > 100 µM | TGI [44]: > 100 µM | TGI [45]: > 100 µM | TGI [46]: > 100 µM | TGI [58]: > 100 µM | TGI [47]: > 100 µM | TGI [48]: > 100 µM | TGI [49]: > 100 µM | TGI [50]: > 100 µM
